Values of other authors, collected in PMC11255275, “Structural insights into the triple agonism at GLP-1R, GIPR and GCGR manifested by retatrutide” (Cell Discovery, 2024).

Columns and labels:
GLP-1R = details: among GLP-1R, GIPR and GCGR; general statement in introduction; cited from earlier work
Excerpt: (§1) The most successful treatments currently available include glucagon-like peptide-1 (GLP-1) receptor agonists (GLP-1RAs), exemplified by semaglutide (approved in 2017, $19.9 billion sales in 2023)[3] and tirzepatide (approved in 2022, $5.3 billion sales in 2023)[4].

GIPR = details: in addition to GLP-1R; cited from earlier work
Excerpt: as §1

Substance | receptor activation (GLP-1R) | receptor activation (GIPR)
semaglutide | solely activates GLP-1R | 
tirzepatide |  | also activates glucose-dependent insulinotropic polypeptide (GIP) receptor (GIPR)
